Reference: US7858125B2, “Multi-component biocide composition for wood protection” (priority 2006, dated 2010)
Like-named read-outs stand apart in the source and are kept apart here.

Columns and labels:
A. niger = assay: Mold resistance of treated wood stakes (ASTM D4445-91), A. niger; type: cell-based, Aspergillus niger 2.242
Experimental: (§1) The biocide compositions were first tested for the efficacy in preventing mold fungal growth. […] The mold fungi were first prepared by growing the various mold fungi species on 2% malt agar. […] Spore suspensions were transferred to a spray bottle and diluted to 100 milliliters with DI water. The spray bottle was adjusted to deliver 1 milliliter inoculum/spray.
(§2) The biocide compositions were tested for the efficacy in preventing mold fungal growth and compared to the abilities of the commercially used preservatives, fungicides, extracts, and pharmaceuticals in preventing mold fungal growth.
(§3) Specimens (7×20 millimeters cross section by 7 centimeters long) were cut from unseasoned southern yellow pine mill ends from a Mississippi sawmill and stored at 0° C. […] Southern yellow pine oriented strand board (OSB) specimens (11×20 millimeters cross section by 7 centimeters long) were cut from a full sheet of OSB and conditioned to 70% relative humidity. […] Untreated stakes were dipped in DI water and served as Control A for water-based test chemicals. […]
(§4) The biocide compositions were first tested for the efficacy in preventing mold fungal growth. […]

T. viride = assay: Mold resistance of treated wood stakes (ASTM D4445-91), T. viride; type: cell-based, Trichoderma viride ATCC 20476
Experimental: as §1, §2, §3, §4

P. chrysogenum = assay: Mold resistance of treated wood stakes (ASTM D4445-91), P. chrysogenum; type: cell-based, Penicillium chrysogenum PH02
Experimental: as §1, §2, §3, §4

[1] = Example 2, dip-treated unseasoned southern yellow pine, 4 weeks, scale 0-5 (5 = 100% coverage)

Molecule | Mold Resistance Average Rating, A. niger (A. niger; [1]) | Mold Resistance Average Rating, T. viride (T. viride; [1]) | Mold Resistance Average Rating, P. chrysogenum (P. chrysogenum; [1]) | Mold Resistance Average Rating, A. niger (A. niger) | Mold Resistance Average Rating, T. viride (T. viride) | Mold Resistance Average Rating, P. chrysogenum (P. chrysogenum)
c1ccc2[nH]c(-c3cscn3)nc2c1 [Sample 46, Thiabendazole] | 0.0 | 0.0 | 0.0 |  |  | 
CCC(=O)[O-].CCC(=O)[O-].[Ca+2] [Sample 17, Calcium propionate] | 5.0 | 4.6 | 4.9 |  |  | 
O=C[O-].[Na+] [Sample 27, Sodium formate] | 4.7 | 4.0 | 3.3 |  |  | 
C/C=C/C=C/C(=O)[O-].[K+] [Sample 23, Potassium sorbate] |  |  |  | 0.0 | 1.0 | 0.0
C[C@@H](c1ncncc1F)[C@](O)(Cn1cncn1)c1ccc(F)cc1F [Sample 43, Voriconazole] | 0.1 | 0.4 | 0.0 |  |  | 
O=C([O-])c1ccccc1.[Na+] [Sample 16, Sodium benzoate] | 0.0 | 0.7 | 0.0 |  |  | 
CCC(=O)[O-].CCC(=O)[O-].[Ca+2] [Sample 19, Calcium propionate] | 0.9 | 3.3 | 2.0 |  |  | 
C[C@@H](c1ncncc1F)[C@](O)(Cn1cncn1)c1ccc(F)cc1F [Sample 42, Voriconazole] | 0.0 | 1.3 | 0.0 |  |  | 
c1ccc2[nH]c(-c3cscn3)nc2c1 [Sample 45, Thiabendazole] | 0.0 | 2.5 | 0.0 |  |  | 
CCC(=O)[O-].CCC(=O)[O-].[Ca+2] [Sample 18, Calcium propionate] | 5.0 | 4.7 | 5.0 |  |  | 
c1ccc2[nH]c(-c3cscn3)nc2c1 [Sample 47, Thiabendazole] | 0.0 | 0.0 | 0.0 |  |  | 
O=C([O-])c1ccccc1.[Na+] [Sample 13, Sodium benzoate] | 2.9 | 3.1 | 2.4 |  |  | 
C/C=C/C=C/C(=O)[O-].[K+] [Sample 20, Potassium sorbate] |  |  |  | 5.0 | 4.9 | 5.0
O=NO [Sample 28, Sodium nitrite] | 5.0 | 5.0 | 4.9 |  |  | 
Clc1ccc(COC(Cn2ccnc2)c2ccc(Cl)cc2Cl)c(Cl)c1 (stereo not drawn) [Sample 34, Miconazole] | 0.0 | 0.0 | 0.0 |  |  | 
Thujaplicin (isopropyltropolone) [Sample 29] | 5.0 | 1.0 | 0.0 |  |  | 
C/C=C/C=C/C(=O)[O-].[K+] [Sample 24, Potassium sorbate] |  |  |  | 0.0 | 0.0 | 1.7
O=C([O-])c1ccccc1.[Na+] [Sample 14, Sodium benzoate] | 1.7 | 1.0 | 0.0 |  |  | 
C/C=C/C=C/C(=O)[O-].[K+] [Sample 21, Potassium sorbate] |  |  |  | 2.6 | 2.9 | 2.6
C[C@@H](c1ncncc1F)[C@](O)(Cn1cncn1)c1ccc(F)cc1F [Sample 41, Voriconazole] | 0.0 | 2.4 | 0.0 |  |  | 
O=C[O-].[Na+] [Sample 26, Sodium formate] | 5.0 | 4.1 | 4.7 |  |  | 
O=C[O-].[Na+] [Sample 25, Sodium formate] | 5.0 | 4.3 | 4.6 |  |  | 
C[C@@H](c1ncncc1F)[C@](O)(Cn1cncn1)c1ccc(F)cc1F [Sample 44, Voriconazole] | 0.0 | 0.1 | 0.0 |  |  | 
C/C=C/C=C/C(=O)[O-].[K+] [Sample 22, Potassium sorbate] |  |  |  | 0.0 | 0.7 | 0.0
Clc1ccccc1C(c1ccccc1)(c1ccccc1)n1ccnc1 [Sample 40, Clotrimazole] | 5.0 | 3.7 | 3.4 |  |  | 
CC(C)c1cccc(O)c(=O)c1 [Sample 30, Thujaplicin (isopropyltropolone)] | 0.0 | 0.0 | 0.0 |  |  | 
OC(Cn1cncn1)(Cn1cncn1)c1ccc(F)cc1F [Sample 39, Difluconazole] | 5.0 | 5.0 | 4.7 |  |  | 
O=C([O-])c1ccccc1.[Na+] [Sample 15, Sodium benzoate] | 0.4 | 0.4 | 0.0 |  |  | 
